Source: US10695482B2, “Cartridge and method for increasing myocardial function” (SeaStar Medical, Inc., priority 2011, dated 2020)

How the values were obtained:
[1] = tested on: leukocytes in porcine blood; assay: Microscopic flow chamber: leukocyte interaction with polysulfone membrane; type: cell-based, pig
From the text: A custom microscopic flow chamber system was set up to enable microscopic analysis of leukocyte interaction with the SCD membrane. The flow chamber consisted of a polycarbonate housing with an inlet and outlet for perfusion. A polysulfone membrane was affixed to the polycarbonate block with a gasket which directed shear flow. The thickness of the gasket (100 μm) along with the length (2 cm) and the width of the channel (1.5 mm) determined the volume of the flow chamber. Microscopic imaging was accomplished through an optical window made up of a cover glass affixed to the bottom of the polycarbonate block. Either isolated blood or purified leukocytes were used for this study.
Isolated blood was prone to activation from excessive handling. Thus, 5 mL of fresh heparinized porcine blood was minimally manipulated prior to the flow chamber study. Briefly, leukocytes were fluorescently labeled using 50 μg/mL of Hoechst 33342 dye. Further, the leukocytes were activated by adding 1 μg/ml lipopolysaccharide (LPS) directly to the blood samples. […] Blood passed through the flow chamber at a rate of 20 μL/min with calculated shear forces between 1-10 dynes/cm^2. For each isolated blood sample, sequences were acquired in triplicate.
Microscopic analysis of cell capture events was accomplished using either a Zeiss Axiovert 200M or Axio-Observer epifluorescence microscope equipped with a microscope stage-top incubator to control environmental temperature and CO2 content. Fluorescence images were acquired with either a Zeiss MRm3 or an Icc1 camera at a frequency of 1 frame/second for 5 minutes, for analysis of leukocyte/membrane interaction, and at 1 frame/minute for 1 hour sequences, for analysis of long term leukocyte attachment. Frame by frame evaluation of leukocyte rolling, attachment and detachment of leukocytes was carried out to determine the total number and duration of these phenomena. An attachment event was defined as when a leukocyte appeared in the same location for multiple frames within a sequence. […]

[2] = tested on: leukocytes in human whole blood; assay: In vitro whole blood leukocyte activation assay; type: cell-based; settings: for CD11b: n = 3; for IL-10: n = 4; for IL-8: n = 5; for IL-6: n = 7
Description: Heparinized human whole blood was added to tubes with or without lipopolysaccharide (LPS) (10 μg/mL) or formyl-Methionyl-Leucyl-Phenylalanine (fMLF, 50 nM). […] The release of IL-6, IL-8, or IL-10 was measured using commercially available ELISA kits from R&D Systems. The release of elastase was measured using a commercially available ELISA kit from Bender MedSystems. The release of lactoferrin was measured using a commercially available ELISA kit from EMD Chemicals. […] Samples were incubated for various times at 37° C. and 5% CO2. CD11b activation was measured using an FITC-conjugated mouse anti-human antibody (AbD Serotech) and evaluated on an Accuri C6 flow cytometer.

| Compound | persistent leukocyte adhesion events ([1]; 1 hour sequences, LPS and citrate versus LPS only, preliminary analysis) | rolling events ([1]; LPS and citrate treated blood) | leukocyte attachment to polysulfone membranes during shear flow ([1]; LPS-activated blood, low ionized calcium, FIG. 17) | CD11b ([2]; Baseline) [MFI × 10^3] | IL-10 ([2]; Baseline) [ng/mL] | IL-8 ([2]; Baseline) | IL-6 ([2]; Baseline) [ng/mL] | CD11b ([2]; Stimulated (LPS, fMLF)) [MFI × 10^3] | IL-10 ([2]; Stimulated (LPS, fMLF)) [ng/mL] | IL-8 ([2]; Stimulated (LPS, fMLF)) [ng/mL] | IL-6 ([2]; Stimulated (LPS, fMLF)) [ng/mL] |
| --- | --- | --- | --- | --- | --- | --- | --- | --- | --- | --- | --- |
| O=C(O)CC(O)(CC(=O)O)C(=O)O [Citrate] | far fewer persistent leukocyte adhesion events | increase in rolling events | statistically significant decrease in leukocyte attachment | – | – | – | – | – | – | – | – |
| Heparin | – | – | – | 22.55 ± 1.06 | 0.11 ± 0.07 | 0.0 ± 0^ ng/mL | 0.18 ± 0.04 | 53.43 ± 3.12 | 3.74 ± 0.94 | 34.18 ± 6.66 | 65.42 ± 19.77 |
